Read-outs that look alike come from different tables or passages of the source.
What was measured:
Ty-82 BRD4-NUT = experiment: Cell proliferation assay (Alamar readout), Ty-82; type: cell-based, human; details: Homo sapiens, TY82, 96h, read-out: geomean GI50
Protocol: (§1) The NUT Carcinoma cell line Ty-82 was purchased from JCRB Japan No. 1330 and cultivated in RPMI 1640 supplemented with 10% fetal calf serum (FCS). The NC cell lines 10–15, 14169 and 10326 were in-licensed from Christopher French, Brigham & Womens Hospital, Boston, and were cultivated in DMEM supplemented with glutamax and 10% FCS.
(§2) Viability assays were performed on 96-well flat-bottom microtiter plates and incubated with Alamar Blue solution (Invitrogen, Carlsbad, US-CA). The effects of drug combinations were analysed using the Bliss Independence Model.
(§3) Dose response curves (96h cell proliferation assay - Alamar readout) on four NC cell lines with BET inhibitor BI 894999. Yellow bar: readout t zero (before adding of compound). Green bar: DMSO control (max proliferation).
(§4) Dose response curves (96h cell proliferation assay - Alamar readout) on four NC cell lines with multiple BET inhibitors.

14169 BRD4-NUT = experiment: Cell proliferation assay (Alamar readout), 14169; type: cell-based, human; details: Homo sapiens, 96h, read-out: geomean GI50
Protocol: as §1, §2, §3, §4

NC cell lines = experiment: Cell proliferation assays, all four NC lines (summary); type: cell-based, human
Protocol: as §1, §2

BRD4-NUT = tested on: T1, BRD4-NUT; experiment: Immunofluorescence staining of NUT megadomains, Ty-82; type: cell-based, human
T1 construct: endogenous in cells; host or cells: Ty-82 NUT carcinoma cells
Protocol: Cells were seeded on four-well chamber slides (Merck Millipore, #PEZGS0416). After treatment, cells were fixed with 4% PFA (16% Solution, Thermo Fischer #28908 Paraformaldehyde, diluted 1:4 in PBS), permeabilised with 0,1% TX-100 (Sigma #93443, diluted in PBS). After blocking in blocking buffer (10% normal goat serum, Sigma #G9023–10ml, diluted in blocking solution: 2% BSA/PBS, Sigma #A7284–50ml, diluted 1:15 in PBS), the first antibody mAB rabbit anti-NUT 1:1000 (clone C52B1, Cell Signaling #3625) in blocking buffer was added, followed by incubation with the 2nd antibody goat anti-rabbit Alexa*488 1:1000 (Thermo Fisher, #A-11008) in blocking buffer in the dark. Cells were mounted with ProLong Gold Antifade Mountant with DAPI (Thermo Fisher, #P36931) and analysed using a Laser scanning microscope (LSM700). […]
Immunofluorescence staining of NUT megadomains on NC Ty-82 treated with BI with BI 894999 30nM for 1 h, then changed to 10 nM or 5 nM or 2.5 nM or control for 24 h.

BRD3-NUT [1] = tested on: T2, BRD3-NUT; experiment: Immunofluorescence staining of NUT megadomains, 10326; type: cell-based, human; details: 10326 cells; 30 minutes treatment
T2 construct: endogenous in cells; host or cells: 10326 NUT carcinoma cells, in culture (A11) and as subcutaneous xenograft tumours in NOG mice (A26)
Protocol: Cells were seeded on four-well chamber slides (Merck Millipore, #PEZGS0416). After treatment, cells were fixed with 4% PFA (16% Solution, Thermo Fischer #28908 Paraformaldehyde, diluted 1:4 in PBS), permeabilised with 0,1% TX-100 (Sigma #93443, diluted in PBS). After blocking in blocking buffer (10% normal goat serum, Sigma #G9023–10ml, diluted in blocking solution: 2% BSA/PBS, Sigma #A7284–50ml, diluted 1:15 in PBS), the first antibody mAB rabbit anti-NUT 1:1000 (clone C52B1, Cell Signaling #3625) in blocking buffer was added, followed by incubation with the 2nd antibody goat anti-rabbit Alexa*488 1:1000 (Thermo Fisher, #A-11008) in blocking buffer in the dark. Cells were mounted with ProLong Gold Antifade Mountant with DAPI (Thermo Fisher, #P36931) and analysed using a Laser scanning microscope (LSM700).
[…] Upper row: antibody against NUT, lower row: DAPI.

[2] = Plasma pharmacokinetics in patients (NCT02516553); type: in vivo
Protocol: Schedule B (NCT02516553): daily oral treatment from Day 1 to Day 14 at 2.5 mg/day followed by a week-off in 3-week cycles. Schedule C (NCT02516553): one week-on, one week-off treatment, repeated every two weeks in 4-week cycles with, at each treatment week, a loading dose (6 mg) on Day 1 followed by a maintenance dose (3 mg per day) on the following 6 days.

BRD3-NUT [3] = tested on: T2, BRD3-NUT; experiment: IHC of 10326 xenograft tumours, NUT protein; type: in vivo, mice; details: day 21, 2 mg/kg BI 894999
Protocol: Immunohistochemistry was performed on formalin-fixed, paraffin-embedded tumour tissue using antibodies against human Ki67(Cell Signaling #9027, 1:400 dilution), anti-human mitochondria (Abcam ab92824, 1:1000 dilution) and against endogenous NUT protein (Cell Signaling #3625, 1:50 dilution) used to detect NUT fusion proteins. Digital images of whole tissue sections were acquired using a Leica SCN400 histology scanner (Leica Microsystems). Ki67-positive index was evaluated using Halo Software V. 3.2 (Indica lab). Regions of interest (ROIs) within the tissue sections were first identified using Halo Software via machine learning technology across pathological samples and tissue control, within these ROIs, nuclei were detected and classified as positive or negative based on IHC staining thresholds.
BRD3-NUT 10326 tumor sections after treatment with 2 mg/kg BI 894999, 5 mg/kg or 10 mg/kg CCS1477 and the combination of both. IHC staining for NUT protein.

[4] = GI50, depending on the NC cell line

CNc1nc(-c2nc3ccc(N4CCN(C)CC4)cc3n2Cc2ccccc2)cn2c(C)nnc12 [BI 894999]
GI50 (Ty-82 BRD4-NUT): 2.6 nM
GI50 (14169 BRD4-NUT): 0.9 nM
fold more potent than JQ1 and GSK525762 (NC cell lines; [4]): 40–60 fold
more potent than the dual BET/p300 inhibitor NEO2734 (NC cell lines; [4]): 10–20
GI50 (NC cell lines; Homo sapiens, TY82, Ty-82, 10–15, 14169, 10326, read-out: GI50 (geomean), range over all NC lines): 0.9 to 2.6 nM
time to detachment of BRD-NUT from chromatin (BRD4-NUT; 10–30 nM in Ty-82, 3–10 nM in 10326): ≤ 30 min
concentration at which BRD4-NUT detaches from chromatin / is re-distributed (BRD4-NUT; Ty-82, 30 min treatment): 10 to 30 nM
speckled staining (BRD-NUT bound to chromatin) after washout (BRD4-NUT; washout experiments): quickly restored
concentration at which BRD3-NUT detaches from chromatin (BRD3-NUT [1]): 3 to 10 nM
Cmax ([2]; Schedule C, 6 mg loading/3 mg maintenance, Day 1, 19 patients, read-out: maximal plasma concentration (mean Cmax)): ~20 nM
Cmax ([2]; human, plasma, oral, 2.5 mg, Schedule B, 2.5 mg daily, Day 1, 55 patients, read-out: maximum plasma concentration (mean Cmax)): 5 nM
Cmax ([2]; human, plasma, oral, 6 mg, Schedule C, 6 mg loading/3 mg maintenance, Day 1, 19 patients, read-out: maximal plasma concentration (mean Cmax)): 19 nM
speckled megadomain localisation (NUT staining) (BRD3-NUT [3]): complete loss

— PMC9346113, “Therapeutic impact of BET inhibitor BI 894999 treatment: backtranslation from the clinic” (British Journal of Cancer, 2022)
